Patent publication EP4678639A1, “SALT OF BENZIMIDAZOLE DERIVATIVE” (JW Pharmaceutical Corporation, priority 2023, dated 2024)
Counter-ions that a name gives are not always drawn.

Experiments:
[1] = Liquid stability comparative test (20 mg/mL in purified water, 40 °C, 24 hours, HPLC); assay type: physicochemical
Experimental: The analysis conditions are as follows.
Each sample was dissolved in purified water to prepare a solution with a concentration of 20 mg/mL, stored at an external temperature of 40 °C, and analyzed by HPLC at the initial time point and after 24 hours to measure purity, and the change in the generated degradant (Formula 4) was measured. The analysis of total related substances and degradants was performed by taking a liquid from a solution prepared at a concentration of 20 mg/mL, diluting it to a concentration of 4 mg/mL with the diluent of the related substance test method (HPLC), and measuring it as a test solution, and analyzing it according to the related substance test method (HPLC).

[2] = Raw material stability test versus tegoprazan freebase (60 °C or 90 % RH); assay type: physicochemical
[3] = Stability test by formulation (tablets and orally disintegrating tablets, 60 °C or 90 % RH); assay type: physicochemical; settings: tablets and orally disintegrating tablets prepared with the named salt, versus reference drug
Experimental: The amount of total related substances under stress storage conditions (temperature/humidity) was measured using liquid chromatography (HPLC) using an Infinity 1260 (Agilent) equipment. The analysis conditions are as follows.
To minimize the influence of additives, each test formulation was selected with the same additives as the reference drug (K-CAB tablets 50 mg, K-CAB orally disintegrating tablets 50 mg) disclosed in the Ministry of Food and Drug Safety Pharmaceutical Integrated Information System, and to minimize differences due to the granule manufacturing process, the formulation was prepared using the simple mixing (direct compression) method. Each formulation was as shown in Tables 16 and 17 below, and the stability conditions were conducted for each formulation under the storage conditions of 60 °C, which is a stress temperature condition, and 90 % RH, which is a stress humidity condition, respectively.
Stability tests were conducted under stress storage conditions (temperature/humidity) for each formulation. The results of measuring the amount of total related substances after storage under stress conditions for 1 week or 3 weeks are shown in FIG. 18 and FIG. 19.

[4] = Solid-state stress stability test (humidity 90 % RH); settings: for Initial (%) Degradant / Initial (%) Total Related substances: Table 9, initial
Experimental: (§1) Operation and Calculation: The blank solution, standard solution, and test solution were sequentially tested under the instrument operating conditions according to the liquid chromatography method in the General Test Methods of the 12th Edition of the Korean Pharmacopoeia, and the amount of related substances was calculated using the following equation. Amount of each related; substance (%) = (AT)/(AS) × (CS)/(CT) × (Molecular weight; of the sample)/(Molecular weight; of the standard; product) × P × (1)/(RR; F) [formula] AT = Area of each related substance peak obtained from the test solution AS = Area of the tegoprazan peak obtained from the standard solution CS = Concentration of standard solution (mg/mL) CT = Concentration of test solution (mg/mL) P = Purity/Assay/Potency (%) of standard product RRF = Relative response factor (1.0)
(§2) A solid-state stability comparative test was conducted on each of the above-mentioned prepared tegoprazan acid addition salts. The stability comparative test was conducted for 1 month under the conditions shown in Table 6 below in accordance with The International Council for Harmonisation of Technical Requirements for Pharmaceuticals for Human Use (ICH) guideline, and the purity of the acid addition salt, total related substances, and the content of degradants were measured by HPLC at the initial time point and after 1 month. Total related substances and degradants were measured according to the related substance test method (HPLC).
3) Stress Stability (humidity 90 % RH)

[5] = Solid-state stress stability test (temperature 60 °C); settings: for Change (%) Degradant: 1 month vs initial; for Initial (%) Degradant / Initial (%) Total Related substances: Table 8, initial
[6] = Photostability test, visible light (1.2 Mlux·hr) exposure; settings: for Change (%) Degradant: Table 11, after exposure vs initial; for Initial (%) Degradant / Initial (%) Total Related substances: Table 11, initial; for After (%) Degradant / After (%) Total Related substances: Table 11 under heading Visible Light (1.2 Mlux-hr) Exposure Test
[7] = Photostability test, ultraviolet light (200 W·hr/m2) exposure; settings: for After Ultraviolet Light Exposure (200 W hr/m2)(%) Degradant / After Ultraviolet Light Exposure (200 W hr/m2)(%) Total Related substances: Table 10, UV 200 W·hr/m2, PE bag; for Change (%) Degradant: Table 10, after UV exposure vs initial; for Initial (%) Degradant / Initial (%) Total Related substances: Table 10, initial
Experimental: A photostability comparative test was conducted on each of the above-mentioned prepared tegoprazan acid addition salts. The test was conducted by exposing the sample to light with an energy of 200 W hr/m^2 of ultraviolet light and 1.2 Mlux hr of visible light in accordance with The International Council for Harmonisation of Technical Requirements for Pharmaceuticals for Human Use (ICH) guideline, with the samples packaged in a single PE bag and spread thinly enough to ensure exposure to the light source, taking humidity stability into consideration. The purity of the acid addition salts and the change in the amount of degradants at the initial time point and after exposure to ultraviolet light or visible light were measured by HPLC.

[8] = Solid-state accelerated stability test (40 ± 2 °C/RH 75 ± 5 %); settings: for After 1 Month (%) Degradant / After 1 Month (%) Total Related substances / Change (%) Degradant: 40 ± 2 °C / RH 75 ± 5 %; for Change (%) Degradant: 1 month vs initial; for Initial (%) Total Related substances / Initial (%) Degradant: Table 7, initial; for Initial (%) Degradant: degradant of Formula 4
Experimental: as §1, §2

[9] = water
Experimental: The measurement was conducted according to the method described under "Solubility" in the General Notices of Appendix 1 of the 12th Edition of the Korean Pharmacopoeia. Each solubility was expressed by measuring the solubility of the acid addition salt itself, without conversion to the tegoprazan freebase.

Cc1nc2c(O[C@H]3CCOc4cc(F)cc(F)c43)cc(C(=O)N(C)C)cc2[nH]1 [Methanesulfonate Salt (Crystalline Form)]
After 24 hours Purity (%) ([1]; 20 mg/mL in purified water, 40 °C, 24 hours): 99.47%
Initial Purity (%) ([1]; 20 mg/mL in purified water, initial time point): 99.95%
After 24 hours Degradant (%) ([1]; degradant of Formula 4, 20 mg/mL in purified water, 40 °C, 24 hours): 0.446%
Initial Degradant (%) ([1]; degradant of Formula 4, 20 mg/mL in purified water, initial time point): 0.028%
Amount of Change Degradant (%) ([1]; initial vs after 24 hours at 40 °C): 0.42%
increase in degradants (degradant of Formula 4) ([1]; liquid stability, 40 °C, 24 hours): ≤ 0.5%
change in appearance, 60 °C ([2]; 60 °C, 3 weeks): No change in appearance
change in appearance, 90 % RH ([2]; 90 % RH, 3 weeks): Dissolved to transparency
change in appearance, Initial ([2]; initial): No change in appearance
amount of total related substances generated (FIG. 13) ([2]; stress temperature/humidity storage, compared to tegoprazan freebase): significantly increased
amount of total related substances generated (FIGS. 18 and 19) ([3]; 60 °C or 90 % RH, 1 or 3 weeks): significantly increased
degree of weight gain (FIG. 17) ([3]; 90 % RH, 3 weeks): greater
absorb moisture and deliquesce / melted ([4]; 90 % RH): absorb moisture and deliquesce
Remarks ([4]; 90 % RH, 1 month, state of the solid): Melted
Initial (%) Degradant [4]: 0.122%
Initial (%) Total Related substances [4]: 0.265%
Change in Quality (%) 90 % RH (4 weeks) Degradant ([4]; Table 12 summary): Melted
Change in Quality (%) 90 % RH (4 weeks) Purity ([4]; Table 12 summary): Melted
total related substances increased after 1 month ([5]; 60 °C): ≥ 5.0%
After 1 Month (%) Degradant ([5]; 60 °C, 1 month): 4.167%
After 1 Month (%) Total Related substances ([5]; 60 °C, 1 month): 5.408%
change in appearance, change in the color of the solid ([5]; 60 °C, 1 month): change in appearance
Change (%) Degradant ([5]; 60 °C): 4.045%
Remarks ([5]; 60 °C, 1 month, appearance): Discolorat ion
Initial (%) Degradant [5]: 0.122%
Initial (%) Total Related substances [5]: 0.265%
Change in Quality (%) 60 °C (4 weeks) Degradant ([5]; Table 12 summary): 4.045%
Change in Quality (%) 60 °C (4 weeks) Purity ([5]; Table 12 summary): -5.143%
60 °C (4 weeks) appearance remark ([5]; Table 12 summary, remark in brackets under the 60 °C columns): (Discoloration)
Change (%) Degradant [6]: 0.086%
Initial (%) Degradant [6]: 0.122%
Initial (%) Total Related substances [6]: 0.265%
After (%) Degradant [6]: 0.208%
After (%) Total Related substances [6]: 0.412%
Change in Quality (%) Light (Visible) Degradant ([6]; Table 12 summary): 0.086%
After Ultraviolet Light Exposure (200 W hr/m2)(%) Degradant [7]: 0.168%
After Ultraviolet Light Exposure (200 W hr/m2)(%) Total Related substances [7]: 0.339%
Change (%) Degradant [7]: 0.046%
Initial (%) Degradant [7]: 0.122%
Initial (%) Total Related substances [7]: 0.265%
Change in Quality (%) Light (Ultraviolet) Degradant ([7]; Table 12 summary): 0.046%
Change in Quality (%) Light (Ultraviolet) Purity ([7]; Table 12 summary): 0.074%
After 1 Month (%) Degradant [8]: 0.518%
After 1 Month (%) Total Related substances [8]: 0.727%
Change (%) Degradant [8]: 0.396%
Initial (%) Total Related substances [8]: 0.265%
Initial (%) Degradant [8]: 0.122%
Change in Quality (%) Accelerated (4 weeks) Degradant ([8]; Table 12 summary): 0.396%
Change in Quality (%) Accelerated (4 weeks) Purity ([8]; Table 12 summary): -0.462%
increase in total related substances after 1 month ([8]; accelerated stability): ≥ 0.3%

Cc1nc2c(O[C@H]3CCOc4cc(F)cc(F)c43)cc(C(=O)N(C)C)cc2[nH]1 [Hemisalicylate Salt]
solubility / aqueous solubility [9]: ≤ 1000 µg/mL
After 1 Month (%) Total Related substances ([4]; 90 % RH, 1 month): 1.759%
Initial (%) Degradant [4]: 0.001%
Initial (%) Total Related substances [4]: 0.208%
After 1 Month (%) Degradant ([5]; 60 °C, 1 month): 0.039%
After 1 Month (%) Total Related substances ([5]; 60 °C, 1 month): 0.268%
Change (%) Degradant ([5]; 60 °C): 0.038%
Initial (%) Degradant [5]: 0.001%
Initial (%) Total Related substances [5]: 0.208%
Change (%) Degradant [6]: 0.244%
Remarks ([6]; Table 11, after exposure, appearance): Discolorat ion
Initial (%) Degradant [6]: 0.001%
Initial (%) Total Related substances [6]: 0.208%
After (%) Degradant [6]: 0.245%
After (%) Total Related substances [6]: 1.021%
changes in appearance ([6]; visible light exposure): changes in appearance
After Ultraviolet Light Exposure (200 W hr/m2)(%) Degradant [7]: 0.360%
After Ultraviolet Light Exposure (200 W hr/m2)(%) Total Related substances [7]: 1.360%
Change (%) Degradant [7]: 0.359%
Remarks ([7]; Table 10, after UV exposure, appearance): Discolorat ion
Initial (%) Degradant [7]: 0.001%
Initial (%) Total Related substances [7]: 0.208%
changes in appearance ([7]; ultraviolet light exposure): changes in appearance
After 1 Month (%) Degradant [8]: 0.004%
After 1 Month (%) Total Related substances [8]: 0.208%
Change (%) Degradant [8]: 0.003%
Initial (%) Total Related substances [8]: 0.208%
Initial (%) Degradant [8]: 0.001%
purity change after 1 month ([8]; accelerated stability): ≤ 0.1%
